From US8710064B2, “2-aryl-4-quinazolinones and their pharmaceutical compositions” (China Medical University, priority 2011, dated 2014)

Key:
H460 = assay: trypan blue exclusion assay, H460 cells; type: cell-based; conditions: NCI-H460, H460 human non-small cell lung cancer
Protocol: Hep3B (human hepatocellular carcinoma) and H460 (lung non-small carcinoma) cells were grown in monolayer culture in Dulbecco's modified Eagle's medium (DMEM) (Life Technologies, Rockville, Md., USA) containing 5% fetal bovine serum (HyClone, Logan, Utah, USA), 100 U/ml penicillin and 100 μg/ml streptomycin (Gibco BRL, Rockville, Md., USA) and 2 mM glutamine (Merck, Darmstadt, Germany).
(§1) Cell viability was also determined by trypan-blue exclusion assay. Cells were seeded in 6-well plates (2×10^4/well) for trypan blue exclusion assay, and incubated for 24 hours at 37° C. Culture medium containing test compound or DMSO (0.006%) was added to each well, and cells were incubated at 37° C. At indicated time points (0, 24, 48, 72 and 96 hr), cells were suspended with 0.05% trypsin-EDTA, and stained with trypan-blue dye (0.4%) (Sigma). The cell viability was evaluated by the percentage of death relative to the total cell, and cell growth curve was determined by number of live cells relative to the total number of cells.
(§2) The anti-proliferation effects of Compounds 17-31 on M21, CH27, H460, Hep3B and HSC-3 cells were evaluated by the trypan blue exclusion assay.

HSC-3 = assay: trypan blue exclusion assay, HSC-3 cells; type: cell-based, human; conditions: HSC-3 human squamous carcinoma; trypan blue exclusion assay
Protocol: The HSC-3 (human oral squamous cell carcinoma) were cultured in 1:1 Dulbecco's Modified Eagle's Medium (DMEM) and Ham's Nutrient Mixture F-12, containing 10% FBS (HyClone, Logan, Utah, USA), 100 U/ml penicillin, 100 μg/ml streptomycin (Gibco BRL, Rockville, Md., USA) and 2 mM glutamine (Merck, Darmstadt, Germany).
as §1, §2

[1] = test system: M21, CH27, H460, Hep3B and HSC-3 cells; assay: trypan blue exclusion assay, cancer cell panel (summary); type: cell-based; conditions: summary of Table 2
Protocol: as §1, §2

HT29-5FUR cells = assay: MTT cell viability assay, HT29-5FUR cells; type: cell-based, human; conditions: 25, 50, 100 and 200 nM for 24 and 48 hours
Protocol: HT29-5FUR cell line (human colon adenocarcinoma) provided by Dr. Jai-Sing Yang (China Medical University, Taiwan) was cultured in RPMI-1640 medium (Invitrogen, Carlsbad, Calif., USA) supplemented with 10% fetal bovine serum, 2 mM L-glutamine, 100 U/ml penicillin, and 100 μg/ml streptomycin.
Cells (1×10^4 cells/well) in 96-well plates were exposed to test MJ-66, and 0.1% DMSO in media served as a vehicle control. After 24 and 48 hr-incubations, […] MTT (0.5 mg/mL) solution was added to each well, the plate was incubated at 37° C. for 4 hours. Then, […] 0.04 N HCl in isopropanol was added and the absorbance at 570 nm was measured for each well. The cell survival rate was expressed as % of control. All results were performed from three independent experiments.
The growth inhibition effects of MJ-66 on HT29-5FUR cells were investigated. For cell viability assay, HT29-5FUR cells were cultured and treated with 0, 25, 50, 100 and 200 nM MJ-66 and the percentages of viable cells were detected by MTT assay described in “General materials and methods”.

C6 glioma cells = assay: cell cycle assay by flow cytometry with propidium iodide; type: cell-based, rat; conditions: 60 nM
Protocol: To analyze cellular DNA content by flow cytometry, 3×10^5 cells were seeded in 10 cm dish and incubated for 24 hours at 37° C. […] At indicated time points (0, 6, 12, 24 and 48 hr), over 10^6 cells were suspended with 0.05% trypsin-EDTA, and fixed in 70% ethanol over 1 hour at −20° C. After washed by phosphate-buffered saline (PBS) twice, cells were then suspended with 1 ml propidium iodide/Triton-X 100 staining solution (20 μg/ml PI, 0.1% Triton-X 100 and 0.2 mg/ml ribonuclease A (RNase A, Sigma) in PBS) and incubated for 30 minutes at room temperature in the dark. After filtered by 35 μm nylon mesh (Falcon, 352235), the DNA content was then analyzed by flow cytometry (FACS can, BD Bioscience). The cell-cycle distribution (subG1, G1, S, G2/M, and >4N DNA content) of ten thousand cells was analyzed by WinMDI software.
To investigate the cell cycle distribution of MJ-66-treated glioma cell, C6 glioma cells were treated with 60 nM MJ-66 for 0, 6, 12, 24, 36 and 48 hours, and the cell cycle distributions of the percentages of cells at subG1, G1, S and G2/M phases and DNA content of cells were monitored by flow cytometry with propidium iodide staining.

[2] = test system: U87 human glioma xenograft; assay: in vivo xenograft animal model; parameters: species or system nude mice; conditions: 1.36 microgram/kg intra-tumor every 2 days for 10 times, after 40 days
Protocol: For tumorigenesis, U87 glioma cells (1×10^6 cells per 100 μl PBS) were inoculated subcutaneously into the right flank of 8-to-10-week-old male nude mice (BALB/cAnN-Foxnlnu/CrlNarl mice, National Laboratory Animal Center, Taiwan). Tumor growth was measured every three days. Tumor volume was calculated by volume (mm^3)=[…] (Zhou, Y. H., Wu, X., Tan, F., Shi, Y. X., Glass, T., Liu, T. J., Wathen, K., Hess, K. R., Gumin, J, Lang, F., et al. (2005). PAX6 suppresses growth of human glioblastoma cells. J Neurooncol 71, 223-229). When the tumors reached a mean volume of 50 to 70 mm^3, MJ-66 (1.36 microgram/kg in saline) or vehicle (DMSO or saline) was injected intratumor once per two days during 20 days.
Since MJ-66 was able to effectively cause glioma to undergo mitotic catastrophe in vitro, whether MJ-66 could inhibit tumor growth in vivo was further examined by U87 human glioma xenograft animal model. Approximately 1×10^6 U87 glioma cells were injected subcutaneously into the nude mice and when tumors size reached 50 to 200 mm^3 in volume, MJ-66 (1.36 microgram/kg in saline) or vehicle (DMSO or saline denoted respectively as DMSO and Control) was administered by intra-tumor every 2 days for 10 times and tumor volume was measured for 50 days. Tumor growth was observed every three days.

SMILES: O=c1[nH]c(-c2cccc3ccccc23)nc2ccc(N3CCCC3)cc12 [Compound 23, 6-(Pyrrolidin-1-yl)-2-(naphthalen-1-yl)quinazolin-4-one]
- IC50 (H460): 75 nM
- IC50 (HSC-3): 41 nM
- cytotoxic effects toward cancer cells [1]: exhibited cytotoxic effects
- cell number of HT29-5FUR relative to control (HT29-5FUR cells): dose-dependent decreases
- G2/M cell population (C6 glioma cells; after 6 and 12 hours): significantly increased
- sub G1 and >4N DNA content cell population (C6 glioma cells; after 24, 36 and 48 hours, time-dependent): increased
- tumor growth [2]: significantly inhibited
- tumor volume ([2]; N=8, p<0.01): 435.1 mm^3
